Test systems include MOLT-4 leukemia; HL-60(TB) leukemia; NCI/ADR-RES ovarian; HS 578T breast; SF-539 CNS; NCI-H23 lung; ACHN renal; UACC-62 melanoma; MCF7 breast; SR leukemia.
Common to all, as to experiment: NCI anticancer screen, dose series, 48 h

Values joined by “and” are separate entries in the source; they are usually repeats but may differ in a detail not shown here. Equal values may be shown once.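 Five concentrations, 48 hours, 96-well plates. Here, GI50 denotes the concentration required for 50% inhibition of growth. TGI is the concentration that stops growth completely.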

Consider `COc1ccc2c(c1)OC(N(C(C)=O)C(C)=O)=C(C#N)C2c1ccc(F)cc1` (configuration not stated), for which the GI50 in the test on MOLT-4 leukemia was 2.66 µM; in the test with HL-60(TB) leukemia, 0.496 µM; with NCI/ADR-RES ovarian, 0.953 µM; with HS 578T breast it was 5.19 µM; in the test with SF-539 CNS, 1.55 µM; in the test with NCI-H23 lung, 4.44 µM. The GI50 with ACHN renal was 4.18 µM; with UACC-62 melanoma it was 0.632 µM; in the test with MCF7 breast, 0.593 µM; in the test with SR leukemia, 0.653 µM. Also, the TGI with MOLT-4 leukemia is more than 100 µM; with HL-60(TB) leukemia, 2.53 µM; in the test on NCI/ADR-RES ovarian, more than 100 µM; in the test on HS 578T breast it was more than 100 µM; in the test with SF-539 CNS, 6.93 µM; in the test on NCI-H23 lung, more than 100 µM. For the same compound, the TGI in the test on ACHN renal, in the test with UACC-62 melanoma, with MCF7 breast and with SR leukemia was more than 100 µM throughout.

Regarding `CN(C)C(=S)N=Nc1c(O)[nH]c2ccccc12`, the GI50 is 0.619 µM with MOLT-4 leukemia; 1.32 µM in the test with HL-60(TB) leukemia; 0.334 µM with NCI/ADR-RES ovarian; 2.95 µM in the test with HS 578T breast; 0.499 µM in the test with SF-539 CNS; 0.656 µM with NCI-H23 lung. Besides, the GI50 with ACHN renal was 0.526 µM; in the test with UACC-62 melanoma it was 0.578 µM; in the test on MCF7 breast, 0.552 µM; with SR leukemia, 0.429 µM. Further, the TGI with MOLT-4 leukemia is more than 49.7 µM; in the test on HL-60(TB) leukemia, 7.24 µM; in the test on NCI/ADR-RES ovarian, 2.15 µM; with HS 578T breast it was 67.6 µM; in the test with SF-539 CNS, 8.39 µM; in the test with NCI-H23 lung, 25 µM. Besides, the TGI turned out to be 11.4 µM with ACHN renal, 4.56 µM in the test with UACC-62 melanoma, 13.3 µM with MCF7 breast and 9.38 µM with SR leukemia.

`Nc1cc(N)c(N)cc1N`: the GI50 is 3.14 µM in the test with MOLT-4 leukemia; 2.17 µM in the test on HL-60(TB) leukemia; 2.24 µM in the test on NCI/ADR-RES ovarian; 2.01 µM with HS 578T breast; 2.17 µM with SF-539 CNS; 1.67 µM with NCI-H23 lung. Besides, the GI50 is 1.73 µM in the test on ACHN renal, 1.55 µM in the test with UACC-62 melanoma, 1.79 µM in the test on MCF7 breast and 2.56 µM in the test on SR leukemia. For the same compound, the TGI with MOLT-4 leukemia amounted to 28.6 µM; in the test with HL-60(TB) leukemia, 6.02 µM; in the test with NCI/ADR-RES ovarian, 7.1 µM; in the test with HS 578T breast, 5.37 µM; in the test on SF-539 CNS, 5.88 µM; with NCI-H23 lung it was 4.1 µM. In addition, the TGI in the test with ACHN renal was found to be 3.72 µM; in the test on UACC-62 melanoma, 2.97 µM; in the test on MCF7 breast, 3.81 µM; with SR leukemia, 7.66 µM.

`Oc1ccc(CCCCCCc2ccc(O)cc2)cc1`: the GI50 with MOLT-4 leukemia was 0.566 µM; in the test on HL-60(TB) leukemia it was 0.839 µM; in the test on NCI/ADR-RES ovarian, 3.99 µM; in the test with HS 578T breast, 13.3 µM; in the test with SF-539 CNS, 2.46 µM; in the test on NCI-H23 lung, 7.5 µM. The GI50 was 1.55 µM in the test with ACHN renal, 4.24 µM with UACC-62 melanoma, 6.91 µM in the test with MCF7 breast and 6.15 µM in the test with SR leukemia. Moreover, the TGI worked out at 27.9 µM with MOLT-4 leukemia; 18.7 µM in the test with HL-60(TB) leukemia; 17.4 µM in the test on NCI/ADR-RES ovarian; 37.4 µM in the test with HS 578T breast; 13.7 µM in the test on SF-539 CNS; 21.5 µM with NCI-H23 lung. Moreover, the TGI with ACHN renal is 12 µM; in the test on UACC-62 melanoma, 15.3 µM; in the test on MCF7 breast it was 22.3 µM; in the test with SR leukemia, more than 100 µM.

Turning to `CN(CCOc1ccc(C#N)cc1)CCOc1ccc(C#N)cc1`, the GI50 with MOLT-4 leukemia is 15.1 µM; in the test on HL-60(TB) leukemia it was 20.7 µM; in the test on NCI/ADR-RES ovarian, 43.8 µM; in the test with HS 578T breast, 13.8 µM; in the test with SF-539 CNS it was more than 100 µM; in the test on NCI-H23 lung, 22.6 µM. For the same compound, the GI50 is 41.5 µM in the test on ACHN renal, more than 100 µM with UACC-62 melanoma, more than 100 µM in the test on MCF7 breast and 5.21 µM with SR leukemia. The TGI in the test with MOLT-4 leukemia is 68.7 µM; in the test with HL-60(TB) leukemia it was more than 100 µM; in the test on NCI/ADR-RES ovarian, more than 100 µM; in the test with HS 578T breast it was more than 100 µM; with SF-539 CNS it was more than 100 µM; in the test with NCI-H23 lung, more than 100 µM. In addition, the TGI with ACHN renal was more than 100 µM; in the test with UACC-62 melanoma, more than 100 µM; with MCF7 breast, more than 100 µM; in the test on SR leukemia it was 61 µM.

Regarding `CCOP(=O)(OCC)C(NC(c1ccccc1)c1ccccc1)c1cccc2ccccc12` (configuration not stated), the GI50 was 4.17 µM in the test with MOLT-4 leukemia; 14.1 µM in the test on HL-60(TB) leukemia; 9.79 µM with NCI/ADR-RES ovarian; 29.9 µM with HS 578T breast; 23 µM in the test with SF-539 CNS; 13.3 µM in the test with NCI-H23 lung. Besides, the GI50 was 4.1 µM in the test with ACHN renal, 2.58 µM in the test on UACC-62 melanoma, 4.04 µM in the test on MCF7 breast and 4.91 µM in the test with SR leukemia. Moreover, the TGI with MOLT-4 leukemia was more than 100 µM; in the test with HL-60(TB) leukemia it was more than 100 µM; in the test with NCI/ADR-RES ovarian it was 22.6 µM; with HS 578T breast it was 67.3 µM; in the test with SF-539 CNS, 41.4 µM; in the test with NCI-H23 lung, 29.5 µM. The TGI is 12.3 µM with ACHN renal, 9.1 µM in the test on UACC-62 melanoma, 24.3 µM in the test with MCF7 breast and more than 100 µM with SR leukemia.

With `Cc1cc(C(C#N)c2ccc(Cl)cc2)c(Cl)cc1NC(=O)c1cc(I)cc(I)c1O` (configuration not stated), the GI50 with MOLT-4 leukemia is 4.74 µM and 22.6 µM; with HL-60(TB) leukemia it was 4.34 µM and 22.1 µM; with NCI/ADR-RES ovarian, 4.03 µM and 15.7 µM; in the test with HS 578T breast it was 12 µM; with SF-539 CNS, 8.18 µM and 13.2 µM; in the test with NCI-H23 lung it was 6.2 µM and 14.6 µM. Also, the GI50 in the test with ACHN renal was 15.5 µM and 17.2 µM; with UACC-62 melanoma, 2.96 µM and 8.79 µM; with MCF7 breast it was 6.58 µM and 15.7 µM; in the test on SR leukemia, 5.97 µM and 9.04 µM. In addition, the TGI is 19.3 µM and 53.9 µM in the test with MOLT-4 leukemia; 15.9 µM and 48.9 µM in the test with HL-60(TB) leukemia; 28.9 µM and 54.2 µM in the test with NCI/ADR-RES ovarian; 34.4 µM in the test on HS 578T breast; 23.2 µM and 32.4 µM in the test on SF-539 CNS; 21 µM and 37.3 µM in the test with NCI-H23 lung. The TGI with ACHN renal was 46.1 µM and 37.1 µM; in the test with UACC-62 melanoma it was 11.5 µM and 23.8 µM; in the test on MCF7 breast, 23.8 µM and 32.4 µM; in the test on SR leukemia, 34.5 µM and > 100 µM.

Consider `CCOc1ccc(NCc2cc(OC)c(OC)c(OC)c2)cc1`, for which the TGI in the test with MOLT-4 leukemia was more than 100 µM; in the test on HL-60(TB) leukemia it was 19.2 µM and 33.8 µM; in the test with NCI/ADR-RES ovarian, more than 100 µM; with HS 578T breast, more than 100 µM; in the test on SF-539 CNS, 2.95 µM and 3.25 µM; with NCI-H23 lung it was 31.4 µM and 39.3 µM. Further, the TGI in the test with ACHN renal, with UACC-62 melanoma, with MCF7 breast and in the test on SR leukemia was more than 100 µM in each case. Also, the GI50 with NCI/ADR-RES ovarian was 0.569 µM; with HS 578T breast it was 0.823 µM.

(Values after PubChem BioAssay (NCI).)
